As usually defined, the half-life is how long it takes for the measured level to halve. Higher therefore signals slow loss. In general, AUC(0-t) refers to exposure summed from dosing to a finite time, without extrapolation to infinity. One may read the Cmax as the maximum level reached in the sampled fluid or tissue. In general, Tmax refers to the time from dosing to the highest level.

We go through three molecules from US20240166645A1, “PYRIDOPYRIMIDINONE DERIVATIVE, PREPARATION METHOD THEREFOR, AND USE THEREOF” (Wuhan Humanwell Innovative Drug Research and Development …, priority 2021, published 2024).

The nature of series [1]: Plasma protein binding by equilibrium dialysis, mouse plasma. In kind it is in vitro ADME. Particulars: 37° C., read-out: Free fraction in plasma, Mouse (%). The protocol: (§1) Plasma protein binding rate of compounds was detected by equilibrium dialysis (HTDialysis, HTD 96b). The compound was prepared into a […] stock solution with DMSO, and then 25-fold diluted with 0.05 M sodium phosphate buffer as a working solution. A blank 96-well plate was taken and preloaded with 380 μL of plasma per well. The plasma was then added with the working solution at 20 μL/well and mixed well, with the compound at a final concentration of 1 μM, containing 0.2% DMSO per well.
(§2) 100 μL of 0.05 M sodium phosphate buffer was added to the reception-side of each dialysis chamber (HTD 96b), and then 100 μL of plasma containing the compound was added to the supply-side. The dialysis chamber was covered with a plastic lid, shaken and incubated at 37° C. for 5 h.
(§3) After incubation, 25 μL of samples were taken from each of the supply-side and the reception-side of the dialysis chamber and placed in the blank 96-well plate. An equal volume of plasma was added to each of the supply-side samples while an equal volume of 0.05 M sodium phosphate buffer was added to each of the reception-side samples and mixed well. The 96-well plate was added with an acetonitrile solution containing internal standard at 200 μL per well, vortexed and shaken at 600 rpm for 10 min, and centrifuged at 5594 g for 15 min (Thermo Multifuge×3R). 50 μL of the supernatant was then transferred to a new 96-well plate, and the samples were mixed with 50 μL of ultra-pure water for LC-MS/MS analysis.
(§4) Plasma protein binding rate and free fraction were calculated using the following formulas: % binding rate=100×([supply-side concentration]5h−[reception-side concentration]5h)/[supply-side concentration]5h. % free fraction=100−% binding rate.

The nature of series [2]: Plasma protein binding by equilibrium dialysis, human plasma. In kind it is in vitro ADME. Particulars: 37° C., read-out: Free fraction in plasma, Human (%). The protocol: as §1, §2, §3, §4
Another series addresses KRAS G12C-SOS1 (Homo sapiens (Human), UniProt Q07889). The experiment in a line: Inhibition test of compounds on KRAS G12C::SOS1 binding. The following applies: GST-KRAS G12C, His-SOS1. The protocol:
The compound to be tested was prepared into a 10 mM stock solution with DMSO, and the compound was serially diluted using 1× test buffer. 0.1 μL of the compound solution with different concentrations was transferred to a 384-well plate. […] 5 μL of His-SOS1 was added to the 384-well plate, centrifuged at 1000 rpm for 1 min, and incubated at room temperature for 15 min.
After incubation, 10 μL of a mixed solution of anti-6his-Tb monoclonal antibody (Cisbio, Cat. No. 61HI2TLA) and anti-GST-XL665 monoclonal antibody (Cisbio, Cat. No. 61GSTXLA) was added to the test well, centrifuged at 1000 rpm for 1 min, and incubated at room temperature for 1 h.
After incubation, the fluorescence signal ratios at 665 nm and 615 nm were read on a multifunctional microplate reader (Perkin Elmer, Envision 2104), and the IC50 values were calculated using Graphpad 5 software.

A short description of series [3]: Human liver microsome stability test. In kind it is in vitro ADME. Particulars: human, human liver microsomes. On the procedure: The human liver microsome stability test was performed by incubating the compound and human liver microsomes in vitro. First, the compound to be tested was prepared into a 10 mM stock solution in DMSO solvent, and then the compound was diluted to 0.5 mM with acetonitrile. Human liver microsomes (Corning) were diluted with PBS into a microsome/buffer solution, and the solution was used to dilute 0.5 mM compound into a working solution, in which the concentration of the compound was 1.5 μM, and the concentration of human liver microsomes was 0.75 mg/mL. A deep-well plate was taken, 30 μL of the working solution was added per well, and then 15 μL of pre-heated 6 mM NADPH solution was added thereto to initiate a reaction, and the reaction was incubated at 37° C. At 0, 5, 15, 30 and 45 min of the incubation, 135 μL of acetonitrile was added to the corresponding wells to terminate the reaction. After the reaction was terminated with acetonitrile at the last time point of 45 min, the deep-well plate was vortexed and vibrated for 10 min (600 rpm/min), and then centrifuged for 15 min. After centrifugation, the supernatant was collected, and added with purified water in a ratio of 1:1 to perform LC-MS/MS detection. A ratio of a peak area of compound to a peak area of internal standard at each time point was obtained, and the peak area ratios of the compound at 5, 15, 30 and 45 min were compared with the peak area ratio at 0 min to calculate the remaining percentage of the compound at each time point. T1/2 was calculated by using GraphPad 5 software.

The nature of series [4]: Pharmacokinetic test in mice. Type of series: in vivo. Particulars: mouse, plasma; male ICR mice, oral gavage, 10 mg/kg. On the procedure:
Male ICR mice (20 to 25 g) were used and fasted overnight. Three mice were taken and orally administered by gavage (10 mg/kg). Blood was collected before the administration, and at 15 min, 30 min, 1 h, 2 h, 4 h, 8 h and 24 h after the administration. 6,800 g of the blood samples were centrifuged at 2 to 8° C. for 6 min, and plasma was collected and stored at −80° C. The plasma at each time point was taken and added with an acetonitrile solution containing internal standard in 3 to 5 times the amount, vortexed and mixed for 1 min, and centrifuged at 13,000 rpm/min at 4° C. for 10 min. The supernatant was collected, added with water in 3 times the amount, and mixed. An appropriate amount of the mixture was taken for LC-MS/MS analysis. The main pharmacokinetic parameters were analyzed using WinNonlin 7.0 software with non-compartmental model.

Series [5] relates to Mia Paca-2 pancreatic cancer. The experiment in a line: Mia Paca-2 pancreatic cancer in vivo efficacy test. The arrangement: species or system mice. On the procedure: (§5) After one week of adaptive feeding of mice, Mia Paca-2 cells in a log phase were resuspended in serum-free DMEM, and then mixed with Matrigel in a ratio of 1:1.1×10^7 Mia Paca-2 cells were inoculated subcutaneously at the right flank at 100 μL per mouse, and tumor growth was observed regularly. When the tumor grew to an average volume of 150 to 200 mm^3, the mice were randomly divided into a model group and an administration group (single drug, in combination with trametinib) based on the tumor size and body weight. The tumor size and body weight were measured and recorded before and during the administration. After the treatment, the tumor size in the model group was compared with that in the administration group to determine the efficacy.

A further series has as its system H358 cells. Nature of the series: Inhibition of 3D cell proliferation (3D CellTiter-Glo). In kind it is cell-based. The following applies: Homo sapiens, NCI-H358, 168 h, read-out: IC50 (nM), inhibition of 3D proliferation of H358 cells, 7 days. The protocol:
H358 cells were seeded in a T75 culture flask and cultured in a RPMI 1640 medium containing 10% FBS for 2 days for subsequent experiments in which the cells would be cultured or seeded on a 384-well plate.
On day 1, the cells were seeded on the 384-well plate, with 40 μL of medium added per well and serially diluted compounds or DMSO added per well, and an additional well without seeded cells but with medium was set up as a blank control. After culture at 37° C., 5% CO2 for 7 days, the plate was added with 3D CellTiter-Glo reagent (Promega, Cat. No. G9683) on day 8, shaken at 320 rpm for 20 min, and left at room temperature for 2 h. Luminescence signals were read on a multifunctional microplate reader. Cell viability inhibition rate was calculated as:
Cell viability inhibition rate=(DMSO group−test compound)/(DMSO group−blank control group)×100%
(§6) IC50 values were calculated using Graphpad 5 software.
(In ATP-based viability assays light output follows the ATP content of the culture.)

For the next series, the system named is LOVO colorectal cancer. The experiment in a line: LOVO colorectal cancer in vivo efficacy test. Particulars: 25 mg/kg BID. The arrangement: species or system mice. The protocol: as §5, with “LOVO” for “Mia Paca-2”, “F12K, 5×10^6 LOVO” for “DMEM, and then mixed with Matrigel in a ratio of 1:1.1×10^7 Mia Paca-2”, “group” for “group (single drug, in combination with trametinib)”

In series [6] the test system is ERK phosphorylation level in DLD-1 cells. Nature of the series: Inhibition of ERK phosphorylation level in DLD-1 cells (intracellular western blot). The following applies: Homo sapiens. In kind it is cell-based. On the procedure:
Intracellular western blot quantitative analysis was used to detect the inhibitory level of compounds on ERK phosphorylation in DLD-1 cells.
DLD-1 cells (ATCC, CCL-221) were seeded in a T75 culture flask at 2.5×10^6 cells/flask and cultured in a RPMI 1640 medium containing 10% FBS for 2 days. On day 3, the cells were seeded on a 384-well plate, and cultured overnight at 37° C., 5% CO2. After overnight culture, the plate was added with serially diluted compounds (the final content of DMSO was 0.5%), the negative group was added with DMSO, and incubated in a 37° C., 5% CO2 incubator.
The cells were fixed, washed once with PBS, treated to disrupt membranes, and blocked at room temperature for 1 h. The blocking solution was removed. The plate was added with primary antibody (CST, Cat. No. #4370S), and incubated overnight at 4° C. The plate was washed 3 times with PBST (PBS solution added with 0.05% Tween-20) and soaked for 2 min each time. The plate was added with secondary antibody (LI-COR, Cat. No. 926-32211) and incubated at room temperature in the dark. The plate was washed 3 times with PBST and soaked for 2 min each time. The plate was centrifuged at 1000 rpm for 1 min, scanned on a two-color infrared laser imaging system (Odyssey® CLX) to read the signal.
Relative signal=800-channel signal values/700-channel signal values.
Relative expression level of ERK phosphorylation=(test compound−control compound I)/(DMSO group−control compound I)
as §6
A general note: A western blot detects proteins with antibodies after separation by electrophoresis.

Chain of KRAS G12C-SOS1 (Q07889 whole entry, stated change not applied): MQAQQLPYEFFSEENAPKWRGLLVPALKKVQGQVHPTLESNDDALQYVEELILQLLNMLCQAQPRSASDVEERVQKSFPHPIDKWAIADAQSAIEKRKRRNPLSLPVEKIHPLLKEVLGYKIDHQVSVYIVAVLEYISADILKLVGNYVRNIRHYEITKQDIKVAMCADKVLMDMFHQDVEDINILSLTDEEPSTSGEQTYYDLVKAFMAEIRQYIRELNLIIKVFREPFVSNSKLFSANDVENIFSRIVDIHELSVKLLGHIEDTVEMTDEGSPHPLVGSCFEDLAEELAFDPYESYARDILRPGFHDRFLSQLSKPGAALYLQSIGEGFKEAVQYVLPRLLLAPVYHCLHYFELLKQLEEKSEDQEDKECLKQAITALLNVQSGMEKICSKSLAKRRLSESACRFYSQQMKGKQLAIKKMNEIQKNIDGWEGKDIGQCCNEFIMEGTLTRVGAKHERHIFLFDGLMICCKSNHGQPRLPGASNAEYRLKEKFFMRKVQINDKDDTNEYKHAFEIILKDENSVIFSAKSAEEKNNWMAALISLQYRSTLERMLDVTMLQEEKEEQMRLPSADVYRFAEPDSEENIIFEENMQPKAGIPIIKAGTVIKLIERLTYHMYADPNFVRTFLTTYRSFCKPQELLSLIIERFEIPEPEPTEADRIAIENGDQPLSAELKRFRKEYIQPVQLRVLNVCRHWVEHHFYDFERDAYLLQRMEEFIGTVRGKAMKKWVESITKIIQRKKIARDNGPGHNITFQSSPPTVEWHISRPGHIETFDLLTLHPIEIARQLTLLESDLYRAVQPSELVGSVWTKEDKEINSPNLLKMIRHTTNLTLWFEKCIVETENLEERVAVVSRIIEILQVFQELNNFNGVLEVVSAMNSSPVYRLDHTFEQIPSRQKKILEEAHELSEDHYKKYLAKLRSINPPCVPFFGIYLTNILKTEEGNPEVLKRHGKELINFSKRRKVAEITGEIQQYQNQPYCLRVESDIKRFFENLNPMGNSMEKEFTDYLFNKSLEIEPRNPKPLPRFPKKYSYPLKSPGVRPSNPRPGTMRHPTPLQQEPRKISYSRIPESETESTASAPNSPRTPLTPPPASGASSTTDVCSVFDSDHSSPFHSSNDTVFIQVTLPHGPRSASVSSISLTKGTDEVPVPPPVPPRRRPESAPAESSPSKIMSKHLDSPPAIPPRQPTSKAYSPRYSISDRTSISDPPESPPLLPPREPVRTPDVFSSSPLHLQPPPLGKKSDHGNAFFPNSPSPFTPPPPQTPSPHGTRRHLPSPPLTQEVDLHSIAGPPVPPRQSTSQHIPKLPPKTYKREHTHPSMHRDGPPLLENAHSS

Regarding `Cc1nc(N[C@H](C)c2cccc(S(=O)(=O)C(F)F)c2F)c2cn(C3(CF)CC3)c(=O)cc2n1` [Compound I-5, (R)-4-((1-(3-((difluoromethyl)sulfonyl)-2-fluorophenyl)ethyl)amino)-6-(1-(fluoromethyl)cyclopropyl)-2-methylpyrido[4,3-d]pyrimidin-7(6H)-one], the fraction unbound at 5 h, 1 µM in [1] turned out to be 0.114; in [2] it was 0.077. The IC50 at KRAS G12C-SOS1 was found to be 10 nM.

With `Cc1nc(N[C@H](C)c2cccc(C(F)(F)F)c2C)c2cn(C3(CF)CC3)c(=O)cc2n1` [Control compound I, reference compound], in series [1], the fraction unbound at 5 h, 1 µM is 0.005. The fraction unbound at 5 h, 1 µM in [2] was 0.009. Besides, the half-life at 1 µM in series [3] came to 1.07 h. Further, in series [4], the exposure AUC(0-t) is 365 ng·h/mL, the Cmax is 176 ng/mL, the Tmax was 0.25 h and the half-life is 1.35 h.

Take `Cc1nc(N[C@H](C)c2cccc(S(F)(F)(F)(F)F)c2)c2cn(C3(C(F)F)CC3)c(=O)cc2n1` [Compound I-23, (R)-6-(1-(difluoromethyl)cyclopropyl)-2-methyl-4-((1-(3-(pentafluorosulfanyl)phenyl)ethyl)amino)pyrido[4,3-d]pyrimidin-7(6H)-one]: the “Average tumor weight at the end of the treatment” value in series [5] (Mia Paca-2, 25 mg/kg BID) is on record as 0.45 g; in [5] (Mia Paca-2, 50 mg/kg BID), 0.38 g; in the series on LOVO colorectal cancer, 0.65 g. Further, the “Tumor weight inhibition rate (relative to the vehicle group)” value in series [5] (Mia Paca-2, 25 mg/kg BID) is given as 61%; in series [5] (Mia Paca-2, 50 mg/kg BID), 67%; with LOVO colorectal cancer, 53%. The IC50 in the series on H358 cells came out at 12 nM; on KRAS G12C-SOS1, 4.9 nM; in series [6], 159 nM. In addition, the AUC(0-t) in series [4] is 44100 ng·h/mL. In series [4], this molecule yielded a maximum concentration (Cmax) of 4240 ng/mL. For the same molecule, the Tmax in series [4] came to 2 h. The half-life in series [4] is 2.33 h.
